Data: ChEMBL document CHEMBL2074275, “Characterization of inducible nature of MRP3 in rat liver” (Am J Physiol Gastrointest Liver Physiol, 2000)

Experiments:
Assay type in all cases: functional, organism-based, Sprague-Dawley
[1] = target: T1, ATP-binding cassette sub-family C member 3 (Rattus norvegicus, UniProt O88563); assay: (§1) TP_TRANSPORTER: Northern blot in vivo SD rat, liver
[2] = target: ATP-binding cassette sub-family C member 6 (Rattus norvegicus, UniProt O88269); assay: as §1
[3] = target: T2, Hepatic sodium/bile acid cotransporter (Rattus norvegicus, UniProt P26435); assay: as §1
T2 sequence (P26435 whole entry): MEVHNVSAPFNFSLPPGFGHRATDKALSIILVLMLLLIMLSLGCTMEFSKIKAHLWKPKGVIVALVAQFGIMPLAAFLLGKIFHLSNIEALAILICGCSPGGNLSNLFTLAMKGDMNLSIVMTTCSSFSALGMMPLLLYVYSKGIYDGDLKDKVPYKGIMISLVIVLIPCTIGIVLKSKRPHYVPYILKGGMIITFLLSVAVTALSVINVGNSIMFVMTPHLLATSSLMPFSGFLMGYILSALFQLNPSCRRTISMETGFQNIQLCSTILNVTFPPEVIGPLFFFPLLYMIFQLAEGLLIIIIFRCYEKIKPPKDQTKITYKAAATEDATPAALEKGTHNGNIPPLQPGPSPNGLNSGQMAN

[4] = target: T1, ATP-binding cassette sub-family C member 3; assay: TP_TRANSPORTER: Western in vivo SD rat, liver

Measured: Activity

T1 sequence (O88563 whole entry): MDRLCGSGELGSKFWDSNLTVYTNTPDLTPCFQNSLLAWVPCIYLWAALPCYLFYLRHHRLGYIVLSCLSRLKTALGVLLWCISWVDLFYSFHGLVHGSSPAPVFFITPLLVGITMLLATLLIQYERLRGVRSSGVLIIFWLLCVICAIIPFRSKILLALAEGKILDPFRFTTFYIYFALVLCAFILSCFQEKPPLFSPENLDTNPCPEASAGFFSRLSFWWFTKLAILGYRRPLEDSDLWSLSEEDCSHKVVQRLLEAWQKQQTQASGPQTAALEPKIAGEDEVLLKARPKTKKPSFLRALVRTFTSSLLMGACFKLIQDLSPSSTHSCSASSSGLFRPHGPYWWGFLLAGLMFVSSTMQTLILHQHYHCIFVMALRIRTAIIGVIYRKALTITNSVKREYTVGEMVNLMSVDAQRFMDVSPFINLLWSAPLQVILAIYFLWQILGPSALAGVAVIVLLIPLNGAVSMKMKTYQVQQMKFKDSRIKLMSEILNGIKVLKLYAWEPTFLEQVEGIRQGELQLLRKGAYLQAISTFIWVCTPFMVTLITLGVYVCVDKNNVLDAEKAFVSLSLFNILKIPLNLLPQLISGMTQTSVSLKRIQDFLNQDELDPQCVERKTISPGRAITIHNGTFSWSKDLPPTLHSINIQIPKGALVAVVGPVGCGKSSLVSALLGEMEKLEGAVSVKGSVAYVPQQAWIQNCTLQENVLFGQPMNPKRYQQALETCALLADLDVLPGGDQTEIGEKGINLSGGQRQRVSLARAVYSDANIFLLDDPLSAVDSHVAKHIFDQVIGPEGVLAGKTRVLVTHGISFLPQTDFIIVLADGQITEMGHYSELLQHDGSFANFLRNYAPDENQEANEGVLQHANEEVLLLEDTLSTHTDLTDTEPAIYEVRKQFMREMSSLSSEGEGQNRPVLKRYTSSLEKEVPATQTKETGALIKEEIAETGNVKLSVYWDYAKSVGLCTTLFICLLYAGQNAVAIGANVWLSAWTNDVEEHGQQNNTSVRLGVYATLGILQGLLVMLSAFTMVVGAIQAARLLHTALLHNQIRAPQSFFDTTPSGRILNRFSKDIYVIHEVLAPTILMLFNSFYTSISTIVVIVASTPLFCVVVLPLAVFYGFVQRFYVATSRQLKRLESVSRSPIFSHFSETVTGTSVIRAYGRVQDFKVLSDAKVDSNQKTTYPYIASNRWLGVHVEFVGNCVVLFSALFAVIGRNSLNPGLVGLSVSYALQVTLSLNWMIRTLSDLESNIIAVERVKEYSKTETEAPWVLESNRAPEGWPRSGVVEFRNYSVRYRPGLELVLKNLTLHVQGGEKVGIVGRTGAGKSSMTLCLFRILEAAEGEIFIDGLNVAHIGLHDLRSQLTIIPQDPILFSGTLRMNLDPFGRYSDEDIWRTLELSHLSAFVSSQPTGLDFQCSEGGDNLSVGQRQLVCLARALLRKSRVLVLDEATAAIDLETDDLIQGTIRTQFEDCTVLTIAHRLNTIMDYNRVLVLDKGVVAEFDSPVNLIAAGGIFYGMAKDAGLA
ATP-binding cassette sub-family C member 6, sequence (O88269 whole entry): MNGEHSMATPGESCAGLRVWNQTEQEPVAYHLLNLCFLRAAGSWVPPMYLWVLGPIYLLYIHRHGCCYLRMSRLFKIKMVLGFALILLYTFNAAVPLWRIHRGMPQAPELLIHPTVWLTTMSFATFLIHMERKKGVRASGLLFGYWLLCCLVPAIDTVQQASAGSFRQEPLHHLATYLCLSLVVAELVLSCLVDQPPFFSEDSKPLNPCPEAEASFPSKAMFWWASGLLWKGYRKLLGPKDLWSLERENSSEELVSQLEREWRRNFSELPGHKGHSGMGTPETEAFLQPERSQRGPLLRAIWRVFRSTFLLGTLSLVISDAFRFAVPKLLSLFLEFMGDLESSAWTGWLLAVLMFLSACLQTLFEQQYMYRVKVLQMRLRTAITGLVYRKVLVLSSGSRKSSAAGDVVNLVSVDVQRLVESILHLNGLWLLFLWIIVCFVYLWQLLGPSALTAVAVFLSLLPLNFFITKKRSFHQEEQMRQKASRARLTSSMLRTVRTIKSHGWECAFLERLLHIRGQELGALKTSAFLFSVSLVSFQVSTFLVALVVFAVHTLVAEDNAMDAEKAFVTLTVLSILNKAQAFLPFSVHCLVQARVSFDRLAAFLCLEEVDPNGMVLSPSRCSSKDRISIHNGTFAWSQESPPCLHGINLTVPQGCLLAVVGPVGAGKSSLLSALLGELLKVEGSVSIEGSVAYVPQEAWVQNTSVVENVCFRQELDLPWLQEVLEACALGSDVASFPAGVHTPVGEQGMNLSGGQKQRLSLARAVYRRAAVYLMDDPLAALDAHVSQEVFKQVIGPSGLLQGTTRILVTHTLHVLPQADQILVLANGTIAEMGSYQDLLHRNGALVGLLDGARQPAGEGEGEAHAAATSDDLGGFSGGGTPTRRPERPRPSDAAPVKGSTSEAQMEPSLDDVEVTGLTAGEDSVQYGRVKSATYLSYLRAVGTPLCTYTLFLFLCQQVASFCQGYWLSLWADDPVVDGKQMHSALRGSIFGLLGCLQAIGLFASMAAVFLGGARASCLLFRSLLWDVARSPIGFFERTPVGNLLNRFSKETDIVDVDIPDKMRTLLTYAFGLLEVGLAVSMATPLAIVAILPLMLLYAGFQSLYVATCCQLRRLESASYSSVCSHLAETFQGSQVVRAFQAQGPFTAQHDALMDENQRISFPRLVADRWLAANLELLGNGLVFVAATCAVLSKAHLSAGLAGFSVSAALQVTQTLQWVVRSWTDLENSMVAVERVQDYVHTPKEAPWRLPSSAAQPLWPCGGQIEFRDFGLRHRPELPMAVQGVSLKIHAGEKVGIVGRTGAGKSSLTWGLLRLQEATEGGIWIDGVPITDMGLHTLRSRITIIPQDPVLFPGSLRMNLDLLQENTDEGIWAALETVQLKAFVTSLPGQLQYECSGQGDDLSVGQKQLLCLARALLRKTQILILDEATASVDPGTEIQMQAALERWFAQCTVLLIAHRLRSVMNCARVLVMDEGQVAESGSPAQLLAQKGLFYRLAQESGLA

O=C=Nc1cccc2ccccc12 [alpha-naphthylisocyanate]
inducer [+]: all assays above

CCC1(c2ccccc2)C(=O)NC(=O)NC1=O [PHENOBARBITAL]
inducer [+]: all assays above
